Here are results for 45 compounds from patent US9776972B2, “Pyrazole derivatives as arginine methyltransferase inhibitors and uses thereof” (priority 2013, dated 2017).

This experiment has as its target T1, Human CARM1 (PRMT4) (Homo sapiens, UniProt Q86X55).
T1 construct: Flag-CARM1-His; made in house; host or cells: HEK 293F cells (BacMam baculovirus)
T1 sequence (Q86X55 1-585 isoform Q86X55-1): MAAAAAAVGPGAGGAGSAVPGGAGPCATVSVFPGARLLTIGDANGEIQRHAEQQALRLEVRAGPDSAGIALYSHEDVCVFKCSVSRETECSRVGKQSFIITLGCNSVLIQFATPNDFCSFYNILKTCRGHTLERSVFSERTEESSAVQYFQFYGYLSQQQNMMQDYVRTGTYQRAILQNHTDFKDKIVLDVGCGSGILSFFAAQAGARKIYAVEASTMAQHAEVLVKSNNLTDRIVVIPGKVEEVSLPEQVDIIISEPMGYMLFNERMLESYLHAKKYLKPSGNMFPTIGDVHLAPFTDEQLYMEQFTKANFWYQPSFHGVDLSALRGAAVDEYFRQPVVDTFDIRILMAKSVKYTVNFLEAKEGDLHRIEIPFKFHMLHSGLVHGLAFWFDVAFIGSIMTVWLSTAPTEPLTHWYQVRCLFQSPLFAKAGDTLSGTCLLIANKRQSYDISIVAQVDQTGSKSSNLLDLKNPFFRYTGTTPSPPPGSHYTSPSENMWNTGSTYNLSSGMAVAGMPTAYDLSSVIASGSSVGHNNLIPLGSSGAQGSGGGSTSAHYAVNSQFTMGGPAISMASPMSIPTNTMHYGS
Kind of experiment: CARM1 Biochemical Assay (3H-SAM Flashplate, peptide substrate). The text has this: S-adenosylmethionine (SAM), S-adenosylhomocysteine (SAH), bicine, Tween20, dimethylsulfoxide (DMSO), bovine skin gelatin (BSG), sodium butyrate and Tris(2-carboxyethyl)phosphine hydrochloride solution (TCEP) were purchased from Sigma-Aldrich at the highest level of purity possible. ^3H-SAM was purchase from American Radiolabeled Chemicals with a specific activity of 80 Ci/mmol. 384-well streptavidin Flashplates were purchased from PerkinElmer.
Peptide representative of human histone H3 residues 16-30 was synthesized with an N-terminal linker-affinity tag motif and a C-terminal amide cap by 21st Century Biochemicals. […] The sequence was Biot-Ahx-[…]-amide and contained a monomethylated arginine at position 26 (SEQ ID NO.: 14).
Recombinant baculovirus were generated according to Bac-to-Bac kit instructions (Life Technologies). […] Infections were carried out at 37° C. for 48 hours, harvested by centrifugation, and stored at −80° C. for purification.
Column was washed with 500 mM NaCl in buffer A and Flag-CARM1-His was eluted with 200 ug/ml FLAG peptide in buffer A. Pooled fractions were dialyzed in 20 mM Tris, 150 mM NaCl, 5% glycerol and 1 mM DTT, pH 7.8.
General Procedure for CARM1 Enzyme Assays on Peptide Substrates.
The assays were all performed in a buffer consisting of 20 mM Bicine (pH=7.6), 1 mM TCEP, 0.005% BSG, and 0.002% Tween 20, prepared on the day of use. […] DMSO (1 ul) was added to Columns 11, 12, 23, 24, rows A-H for the maximum signal control and 1 ul of SAH, a known product and inhibitor of CARM1, was added to columns 11, 12, 23, 24, rows I-P for the minimum signal control. A cocktail (40 ul) containing the CARM1 enzyme was added by Multidrop Combi (Thermo-Fisher). The compounds were allowed to incubate with CARM1 for 30 min at room temperature, then a cocktail (10 ul) containing ^3H-SAM and peptide was added to initiate the reaction (final volume=51 ul). […] The assays were stopped by the addition of non-radiolabeled SAM (10 ul) to a final concentration of 300 uM, which dilutes the ^3H-SAM to a level where its incorporation into the peptide substrate is no longer detectable. 50 ul of the reaction in the 384-well polypropylene plate was then transferred to a 384-well Flashplate and the biotinylated peptides were allowed to bind to the streptavidin surface for at least 1 hour before being washed once with 0.1% Tween20 in a Biotek ELx405 plate washer. The plates were then read in a PerkinElmer TopCount plate reader to measure the quantity of ^3H-labeled peptide bound to the Flashplate surface, measured as disintegrations per minute (dpm) or alternatively, referred to as counts per minute (cpm).
Where dpm=disintegrations per minute, cmpd=signal in assay well, and min and max are the respective minimum and maximum signal controls.
Where top and bottom are the normally allowed to float, but may be fixed at 100 or 0 respectively in a 3-parameter fit. The Hill Coefficient normally allowed to float but may also be fixed at 1 in a 3-parameter fit. Y is the % inhibition and X is the compound concentration.

Where [1] appears, read: single experiment or average of multiple experiments.

For orientation: IC50 means the concentration at which inhibition is half-maximal.

The structures appear in SMILES notation. Counter-ions that a name gives are not always drawn. Like-named read-outs stand apart in the source and are kept apart here. Bounds are passed on as bounds.

For `CCn1ncc(CN(C)CCNC)c1-c1ccc(F)cc1` [Compound 7], under setting [1], the IC50 came out at 2.66 µM.
Still for that read-out and setting: the same measure for `CCn1cc(CN(C)CCNC)c(-c2ccc(F)cc2)n1` [Compound 8]: 3.46 µM; for `CN(CCN)Cc1c[nH]nc1-c1ccc(OCC(F)(F)F)cc1` [Compound 96]: 0.0765 µM; for `CC(C)Oc1ccc(-c2n[nH]cc2CN(C)CCN)cc1F` [Compound 97]: 0.511 µM.
Under setting [1], `CN(CCN)Cc1c[nH]nc1-c1ccc(C2CCOCC2)cc1` [Compound 98] displayed an IC50 of 0.439 µM.
Under setting [1], `CN(CCN)Cc1c[nH]nc1-c1ccc(F)cc1F` [Compound 99] gave an IC50 of 7.61 µM. This IC50 lies about 17-fold higher than the previous one.
Still for that read-out and setting: in the case of `CN(CCN)Cc1n[nH]cc1-c1ccc(C#N)cc1` [Compound 100] it was 4.13 µM.
Still for that read-out and setting: the same measure for `CC(C)c1ccc(-c2c[nH]nc2CN(C)CCN)cc1` [Compound 101]: 4.76 µM; for `CN(CCN)Cc1n[nH]cc1-c1ccc(Cl)cc1` [Compound 102]: 1.06 µM; for `CN(CCN)Cc1n[nH]cc1-c1ccc(C(F)(F)F)cc1` [Compound 103]: 1.48 µM.
Regarding `CN(CCN)Cc1n[nH]cc1-c1ccc(C2CC2)cc1` [Compound 104], the IC50 under setting [1] stood at 1.96 µM.
Same read-out and setting: in the case of `CN(CCN)Cc1n[nH]cc1-c1ccc(OC(F)(F)F)cc1` [Compound 105] it was 3.06 µM; in that of `COc1ccc(-c2n[nH]cc2CN(C)CCN)c(F)c1` [Compound 107], 2.86 µM; in that of `Cc1ccc(-c2n[nH]cc2CN(C)CCN)c(F)c1` [Compound 108], 1.53 µM.
The compound `COc1ccccc1-c1n[nH]cc1CN(C)CCN` [Compound 109] gave an IC50 under setting [1] of 5.21 µM.
Same read-out and setting: the same measure for `Cc1cc(C#N)ccc1-c1n[nH]cc1CN(C)CCN` [Compound 110]: 8.77 µM; for `CN(CCN)Cc1c[nH]nc1-c1cc(F)cc(F)c1` [Compound 111]: 0.458 µM; for `CC(=O)c1cccc(-c2n[nH]cc2CN(C)CCN)c1` [Compound 112]: 2.44 µM.
Turning to `CN(CCN)Cc1c[nH]nc1-c1ccc(OC2CC2)cc1` [Compound 114], the midpoint of inhibition under setting [1], the IC50, lay at 0.332 µM. Compared with the last compound, the IC50 is about 7.3-fold lower.
On the same count and under the same terms, the same measure for `CC(O)c1ccc(-c2n[nH]cc2CN(C)CCN)cc1` (stereo not shown) [Compound 115]: 3.53 µM; for `CN(CCN)Cc1c[nH]nc1-c1ccc(C2CC2)cc1` [Compound 116]: 1.22 µM; for `CN(CCN)Cc1c[nH]nc1-c1ccc(C(F)(F)F)c(Cl)c1` [Compound 117]: 0.602 µM.
As for `CN(CCN)Cc1c[nH]nc1-c1ccc(Cl)c(F)c1` [Compound 118], inhibition under setting [1] was half-maximal at 0.114 µM (IC50).
Under setting [1], `CN(CCN)Cc1n[nH]cc1-c1ccc(OC2CC2)cc1` [Compound 119] returned a half-inhibitory concentration (IC50) of 0.441 µM.
In the case of `CN(CCN)Cc1c[nH]nc1-c1cc(F)cc(Cl)c1` [Compound 121], under setting [1], half-maximal inhibition (IC50) required 0.216 µM.
`CN(CCN)Cc1c[nH]nc1-c1cccc(Cl)c1` [Compound 122] showed an IC50 under setting [1] of 0.405 µM.
In turn, `CN(CCN)Cc1c[nH]nc1-c1cccc(Cl)c1F` [Compound 123] had a 50% inhibitory concentration (IC50) under setting [1] of 1.87 µM.
On the same count and under the same terms, the same measure for `CN(CCN)Cc1c[nH]nc1-c1ccc(F)c(Cl)c1` [Compound 124]: 0.545 µM.
As to `COc1ccc(-c2n[nH]cc2CN(C)CCN)cc1Cl` [Compound 125], under setting [1], the IC50 is 1.44 µM.
Still for that read-out and setting: the same measure for `Cc1ccc(-c2n[nH]cc2CN(C)CCN)cc1Cl` [Compound 126]: 0.102 µM; for `COc1cc(Cl)cc(-c2n[nH]cc2CN(C)CCN)c1` [Compound 127]: 1.12 µM.
Same read-out and setting: the same measure for `Cc1c(F)cccc1-c1n[nH]cc1CN(C)CCN` [Compound 129]: 2.42 µM; for `COc1cccc(-c2n[nH]cc2CN(C)CCN)c1` [Compound 130]: 2.41 µM; for `Cc1cccc(-c2n[nH]cc2CN(C)CCN)c1` [Compound 131]: 1.18 µM.
Under setting [1], `CN(CCN)Cc1c[nH]nc1-c1ccc(Cl)cc1F` [Compound 132] had an IC50 of 2.11 µM. This IC50 is about 1.8-fold higher than that of the compound before.
Turning to `Cc1cc(Cl)ccc1-c1n[nH]cc1CN(C)CCN` [Compound 133], under setting [1], the IC50 is 4.27 µM.
On the same count and under the same terms, in the case of `COc1ccc(-c2n[nH]cc2CN(C)CCN)cc1F` [Compound 134] it was 2.6 µM; in that of `CCNC(=O)c1ccc(-c2n[nH]cc2CN(C)CCN)cc1` [Compound 136], 2.07 µM.
Under setting [1], `CN(CCN)Cc1c[nH]nc1-c1cc(Cl)cc(Cl)c1` [Compound 137] yielded an IC50 of 0.849 µM.
On the same count and under the same terms, in the case of `CN(CCN)Cc1n[nH]cc1-c1ccc(OC(F)F)cc1` [Compound 138] it was 2.7 µM.
In the case of `CN(CCN)Cc1c[nH]nc1-c1ccc(C(F)(F)F)c(F)c1` [Compound 141], the IC50 under setting [1] came out at 1.37 µM.
The same measure, in the same setting: in the case of `COc1cc(-c2n[nH]cc2CN(C)CCN)ccc1F` [Compound 142] it was 1.29 µM; in that of `CCN(CC)C(=O)c1ccc(-c2n[nH]cc2CN(C)CCN)cc1` [Compound 143], 5.85 µM; in that of `CC(C)Oc1ccc(-c2c[nH]nc2CN(C)CCN)cc1F` [Compound 144], 4.62 µM.
As to `CNCCN(C)Cc1cnn(C)c1-c1ccc(OC(C)C)cc1` [Compound 244, hydrochloride], the concentration for half-maximal inhibition (IC50) was under 0.1 µM. The compound also came in with an IC50 under setting [1] of 0.0925 µM.
